Among the data in the supplement of paper PMC10307832 are relative viability values, retold here.

The structures appear in SMILES notation.

One assay relates to NCI-H1944. Briefly: relative viability (nuclei count vs DMSO), 5 days (fraction); higher = more cells survive. The settings on record: first compound 2.53 µM. In outline:
(§1)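 Cells from lung cancer lines were seeded into 1536-well plates and, one day later, dosed by pin tool. Treatments were either a single drug or a fixed dose of an anchor drug with five library-drug doses (not always all listed) in √10 steps. After 5 days, nuclei were stained in a one-step fixation (final 0.05% Triton X-100, 1% formaldehyde, 1 ug/ml Hoechst) and counted on 4× images, and relative viability is the treated-to-vehicle nuclei ratio, as the median of duplicate plates.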
As to `CCCCCCCCCCCC1=C(O)C(=O)C=C(O)C1=O` [Embelin] + O=C(CCCCCCC(=O)Nc1ccccc1)NO [Vorinostat] (partner 1 µM), the relative viability turned out to be 0.656.

Regarding `CCCCCCCCCCCC1=C(O)C(=O)C=C(O)C1=O` [Embelin] + O=C(c1cc(Cc2n[nH]c(=O)c3ccccc23)ccc1F)N1CCN(C(=O)C2CC2)CC1 [Olaparib] (partner 8 µM), the relative viability was determined as 0.472.

As to `CCCCCCCCCCCC1=C(O)C(=O)C=C(O)C1=O` [Embelin] + Cc1cc(Nc2cc(N3CCN(C)CC3)nc(Sc3ccc(NC(=O)C4CC4)cc3)n2)n[nH]1 [Tozasertib] (partner 0.1 µM), the relative viability stood at 0.262.

`CCCCCCCCCCCC1=C(O)C(=O)C=C(O)C1=O` [Embelin] + Nc1ncn([C@H]2C[C@H](O)[C@@H](CO)O2)c(=O)n1 [Decitabine] (partner 2 µM) had a relative viability of 0.5.

Compound `CCCCCCCCCCCC1=C(O)C(=O)C=C(O)C1=O` [Embelin] + CC(=O)c1c(C)c2cnc(Nc3ccc(N4CCNCC4)cn3)nc2n(C2CCCC2)c1=O [Palbociclib] (partner 0.5 µM) returned a relative viability of 0.381.

Still in this assay, the particulars now being: first compound 8 µM.
Take `CCCCCCCCCCCC1=C(O)C(=O)C=C(O)C1=O` [Embelin] + O=C(CCCCCCC(=O)Nc1ccccc1)NO [Vorinostat] (partner 1 µM): the relative viability was 0.589.

Take `CCCCCCCCCCCC1=C(O)C(=O)C=C(O)C1=O` [Embelin] + O=C(c1cc(Cc2n[nH]c(=O)c3ccccc23)ccc1F)N1CCN(C(=O)C2CC2)CC1 [Olaparib] (partner 8 µM): the relative viability came to 0.425.

The compound `CCCCCCCCCCCC1=C(O)C(=O)C=C(O)C1=O` [Embelin] + Cc1cc(Nc2cc(N3CCN(C)CC3)nc(Sc3ccc(NC(=O)C4CC4)cc3)n2)n[nH]1 [Tozasertib] (partner 0.1 µM) gave a relative viability of 0.276.

In the case of `CCCCCCCCCCCC1=C(O)C(=O)C=C(O)C1=O` [Embelin] + Nc1ncn([C@H]2C[C@H](O)[C@@H](CO)O2)c(=O)n1 [Decitabine] (partner 2 µM), the relative viability amounted to 0.443.

On to `CCCCCCCCCCCC1=C(O)C(=O)C=C(O)C1=O` [Embelin] + CC(=O)c1c(C)c2cnc(Nc3ccc(N4CCNCC4)cn3)nc2n(C2CCCC2)c1=O [Palbociclib] (partner 0.5 µM), for which the relative viability is 0.306.

For the next assay, the system named is NCI-H1975. The description is as above. The settings on record: first compound 0.08 µM. The method in brief: as §1
For `CCCCCCCCCCCC1=C(O)C(=O)C=C(O)C1=O` [Embelin] + O=C(CCCCCCC(=O)Nc1ccccc1)NO [Vorinostat] (partner 1 µM), the relative viability stood at 0.717.

Take `CCCCCCCCCCCC1=C(O)C(=O)C=C(O)C1=O` [Embelin] + O=C(c1cc(Cc2n[nH]c(=O)c3ccccc23)ccc1F)N1CCN(C(=O)C2CC2)CC1 [Olaparib] (partner 8 µM): the relative viability was determined as 0.887.

As for `CCCCCCCCCCCC1=C(O)C(=O)C=C(O)C1=O` [Embelin] + Cc1cc(Nc2cc(N3CCN(C)CC3)nc(Sc3ccc(NC(=O)C4CC4)cc3)n2)n[nH]1 [Tozasertib] (partner 0.1 µM), the relative viability turned out to be 0.901.

For `CCCCCCCCCCCC1=C(O)C(=O)C=C(O)C1=O` [Embelin] + Nc1ncn([C@H]2C[C@H](O)[C@@H](CO)O2)c(=O)n1 [Decitabine] (partner 2 µM), the relative viability was 0.377.

`CCCCCCCCCCCC1=C(O)C(=O)C=C(O)C1=O` [Embelin] + CC(=O)c1c(C)c2cnc(Nc3ccc(N4CCNCC4)cn3)nc2n(C2CCCC2)c1=O [Palbociclib] (partner 0.5 µM) gave a relative viability of 0.601.

The same assay, now with this note: first compound 0.8 µM.
`CCCCCCCCCCCC1=C(O)C(=O)C=C(O)C1=O` [Embelin] + O=C(CCCCCCC(=O)Nc1ccccc1)NO [Vorinostat] (partner 1 µM) had a relative viability of 0.741.

`CCCCCCCCCCCC1=C(O)C(=O)C=C(O)C1=O` [Embelin] + O=C(c1cc(Cc2n[nH]c(=O)c3ccccc23)ccc1F)N1CCN(C(=O)C2CC2)CC1 [Olaparib] (partner 8 µM) gave a relative viability of 0.779.

Consider `CCCCCCCCCCCC1=C(O)C(=O)C=C(O)C1=O` [Embelin] + Cc1cc(Nc2cc(N3CCN(C)CC3)nc(Sc3ccc(NC(=O)C4CC4)cc3)n2)n[nH]1 [Tozasertib] (partner 0.1 µM), for which the relative viability amounted to 0.745.

Take `CCCCCCCCCCCC1=C(O)C(=O)C=C(O)C1=O` [Embelin] + Nc1ncn([C@H]2C[C@H](O)[C@@H](CO)O2)c(=O)n1 [Decitabine] (partner 2 µM): the relative viability stood at 0.432.

`CCCCCCCCCCCC1=C(O)C(=O)C=C(O)C1=O` [Embelin] + CC(=O)c1c(C)c2cnc(Nc3ccc(N4CCNCC4)cn3)nc2n(C2CCCC2)c1=O [Palbociclib] (partner 0.5 µM) displayed a relative viability of 0.605.

The assay is the same for the next values; noted with them: first compound 2.53 µM.
Regarding `CCCCCCCCCCCC1=C(O)C(=O)C=C(O)C1=O` [Embelin] + O=C(CCCCCCC(=O)Nc1ccccc1)NO [Vorinostat] (partner 1 µM), the relative viability worked out at 0.75.

Turning to `CCCCCCCCCCCC1=C(O)C(=O)C=C(O)C1=O` [Embelin] + O=C(c1cc(Cc2n[nH]c(=O)c3ccccc23)ccc1F)N1CCN(C(=O)C2CC2)CC1 [Olaparib] (partner 8 µM), the relative viability stood at 0.932.

On to `CCCCCCCCCCCC1=C(O)C(=O)C=C(O)C1=O` [Embelin] + Cc1cc(Nc2cc(N3CCN(C)CC3)nc(Sc3ccc(NC(=O)C4CC4)cc3)n2)n[nH]1 [Tozasertib] (partner 0.1 µM), for which the relative viability amounted to 0.683.

`CCCCCCCCCCCC1=C(O)C(=O)C=C(O)C1=O` [Embelin] + Nc1ncn([C@H]2C[C@H](O)[C@@H](CO)O2)c(=O)n1 [Decitabine] (partner 2 µM) came in with a relative viability of 0.37.

`CCCCCCCCCCCC1=C(O)C(=O)C=C(O)C1=O` [Embelin] + CC(=O)c1c(C)c2cnc(Nc3ccc(N4CCNCC4)cn3)nc2n(C2CCCC2)c1=O [Palbociclib] (partner 0.5 µM) returned a relative viability of 0.783.

The assay is the same for the next values; noted with them: first compound 8 µM.
`CCCCCCCCCCCC1=C(O)C(=O)C=C(O)C1=O` [Embelin] + O=C(CCCCCCC(=O)Nc1ccccc1)NO [Vorinostat] (partner 1 µM): the relative viability worked out at 0.729.

Regarding `CCCCCCCCCCCC1=C(O)C(=O)C=C(O)C1=O` [Embelin] + O=C(c1cc(Cc2n[nH]c(=O)c3ccccc23)ccc1F)N1CCN(C(=O)C2CC2)CC1 [Olaparib] (partner 8 µM), the relative viability amounted to 0.904.

`CCCCCCCCCCCC1=C(O)C(=O)C=C(O)C1=O` [Embelin] + Cc1cc(Nc2cc(N3CCN(C)CC3)nc(Sc3ccc(NC(=O)C4CC4)cc3)n2)n[nH]1 [Tozasertib] (partner 0.1 µM) showed a relative viability of 0.839.

As for `CCCCCCCCCCCC1=C(O)C(=O)C=C(O)C1=O` [Embelin] + Nc1ncn([C@H]2C[C@H](O)[C@@H](CO)O2)c(=O)n1 [Decitabine] (partner 2 µM), the relative viability turned out to be 0.586.

As to `CCCCCCCCCCCC1=C(O)C(=O)C=C(O)C1=O` [Embelin] + CC(=O)c1c(C)c2cnc(Nc3ccc(N4CCNCC4)cn3)nc2n(C2CCCC2)c1=O [Palbociclib] (partner 0.5 µM), the relative viability was 0.586.
